Data reported in patent publication US6809065B2, “Herbicide containing substituted pyrazole derivative as active ingredient” (SDS Biotech K.K., priority 2001, dated 2004).

Legend:
[1] = system: rice (Oryza sative, variety: Koshihikari); assay: Paddy field treatment (Test Example 3), crop; format: in vivo, Oryza sativa; conditions: transplanted rice two-leaf period, water surface treatment 10th day after transplantation, 1 kg active ingredient per hectare, evaluated 21st day, lower index = higher safety
Outline: (§1)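 Pot test, flooded paddy soil (4 cm water); weeds sown, 2-leaf rice (Koshihikari) transplanted. Day 10 post-transplant: WP dropped on water, 1 kg a.i./ha. Score index at 21 d after application; higher = stronger herbicidal effect.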

Scirpus juncoides = assay: Paddy field treatment (Test Example 3); format: in vivo; conditions: paddy pot, submerged 4 cm, dropped on water surface 10th day after transplantation, 1 kg active ingredient per hectare, evaluated 21st day
Outline: as §1

Ammannia multiflora = assay: Paddy field treatment (Test Example 3); format: in vivo; conditions: paddy pot, submerged 4 cm, dropped on water surface 10th day after transplantation, 1 kg active ingredient per hectare, evaluated 21st day
Outline: as §1

Monochoria vaginalis = assay: Paddy field treatment (Test Example 3); format: in vivo; conditions: paddy pot, submerged 4 cm, dropped on water surface 10th day after transplantation, 1 kg active ingredient per hectare, evaluated 21st day
Outline: as §1

Stellaria media [2] = assay: Upland soil treatment (Test Example 2); format: in vivo; conditions: soil surface treatment next day after sowing, wettable powder, 1 kg active ingredient per hectare, evaluated 21st day after application
Outline: (§2)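 Applies a soil-surface, pre-emergence spray of 1 kg active ingredient/ha (wettable powder in water) one day after sowing; weed control and crop injury are rated on an index scale three weeks later.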

Chenopodium album [3] = assay: Upland soil treatment (Test Example 2); format: in vivo; conditions: soil surface treatment next day after sowing, wettable powder, 1 kg active ingredient per hectare, evaluated 21st day after application
Outline: as §2

Digitaria adscendens [4] = assay: Upland soil treatment (Test Example 2); format: in vivo; conditions: soil surface treatment next day after sowing, wettable powder, 1 kg active ingredient per hectare, evaluated 21st day after application
Outline: as §2

Setaria viridis [5] = assay: Upland soil treatment (Test Example 2); format: in vivo; conditions: soil surface treatment next day after sowing, wettable powder, 1 kg active ingredient per hectare, evaluated 21st day after application
Outline: as §2

[6] = system: wheat (Triticum aestivum); assay: Upland soil treatment (Test Example 2), crop; format: in vivo; conditions: soil surface treatment next day after sowing, 1 kg active ingredient per hectare, evaluated 21st day, lower index = higher safety
Outline: as §2

soybean (Glycine max) [7] = assay: Upland soil treatment (Test Example 2), crop; format: in vivo; conditions: soil surface treatment next day after sowing, 1 kg active ingredient per hectare, evaluated 21st day, lower index = higher safety
Outline: as §2

[8] = system: wheat (Triticum aestivum); assay: Upland field foliage treatment (Test Example 1), crop; format: in vivo; conditions: foliage treatment 14th day after sowing, 1 kg active ingredient per hectare, evaluated 21st day, lower index = higher safety
Outline: (§3)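 Read-out is a visual index scored 21 days after treatment. Higher values mean more herbicidal effect on weeds and lower values mean better crop safety. Plants were raised from seed in upland soil and received a leaf-surface spray of 1 kg active ingredient per hectare at 14 days.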

soybean (Glycine max) [9] = assay: as above; format: in vivo; conditions: foliage treatment 14th day after sowing, 1 kg active ingredient per hectare, evaluated 21st day, lower index = higher safety
Outline: as §3

Stellaria media [10] = assay: Upland field foliage treatment (Test Example 1); format: in vivo; conditions: foliage treatment 14th day after sowing, wettable powder, 1 kg active ingredient per hectare, evaluated 21st day after application
Outline: as §3

Chenopodium album [11] = assay: Upland field foliage treatment (Test Example 1); format: in vivo; conditions: foliage treatment 14th day after sowing, wettable powder, 1 kg active ingredient per hectare, evaluated 21st day after application
Outline: as §3

Digitaria adscendens [12] = assay: Upland field foliage treatment (Test Example 1); format: in vivo; conditions: foliage treatment 14th day after sowing, wettable powder, 1 kg active ingredient per hectare, evaluated 21st day after application
Outline: as §3

Setaria viridis [13] = assay: Upland field foliage treatment (Test Example 1); format: in vivo; conditions: foliage treatment 14th day after sowing, wettable powder, 1 kg active ingredient per hectare, evaluated 21st day after application
Outline: as §3

Echinochloa spp. = assay: Paddy field treatment (Test Example 3); format: in vivo, Echinochloa crusgalli; conditions: paddy pot, submerged 4 cm, dropped on water surface 10th day after transplantation, 1 kg active ingredient per hectare, evaluated 21st day
Outline: as §1

SMILES	Herbicidal activity Oryza sativa [1]	Herbicidal activity Scirpus juncoides (Scirpus juncoides)	Herbicidal activity Ammannia multiflora (Ammannia multiflora)	Herbicidal activity Monochoria vaginalis (Monochoria vaginalis)	Herbicidal activity Stellaria media (Stellaria media [2])	Herbicidal activity Chenopodium album (Chenopodium album [3])	Herbicidal activity Digitaria adscendens (Digitaria adscendens [4])	Herbicidal activity Setaria viridis (Setaria viridis [5])	Herbicidal activity Triticum aestivum [6]	Herbicidal activity Glycine max (soybean (Glycine max) [7])	Herbicidal activity Triticum aestivum [8]	Herbicidal activity Glycine max (soybean (Glycine max) [9])	Herbicidal activity Stellaria media (Stellaria media [10])	Herbicidal activity Chenopodium album (Chenopodium album [11])	Herbicidal activity Digitaria adscendens (Digitaria adscendens [12])	Herbicidal activity Setaria viridis (Setaria viridis [13])	Herbicidal activity Echinochloa spp. (Echinochloa spp.)
COC=C(Cn1nc(-c2ccc(Cl)cc2Cl)cc1C)C(=O)OC [Compound 7]	0 (herbicidal effect of not less than 0% by weight and less than 10% by weight)	3 (herbicidal effect of not less than 50% by weight and less than 70% by weight)	4 (herbicidal effect of not less than 70% by weight and less than 90% by weight)	4 (herbicidal effect of not less than 70% by weight and less than 90% by weight)	4 (herbicidal effect of not less than 70% by weight and less than 90% by weight)	4 (herbicidal effect of not less than 70% by weight and less than 90% by weight)	4 (herbicidal effect of not less than 70% by weight and less than 90% by weight)	5 (herbicidal effect of not less than 90% by weight)	0 (herbicidal effect of not less than 0% by weight and less than 10% by weight)	0 (herbicidal effect of not less than 0% by weight and less than 10% by weight)	0 (herbicidal effect of not less than 0% by weight and less than 10% by weight)	0 (herbicidal effect of not less than 0% by weight and less than 10% by weight)	5 (herbicidal effect of not less than 90% by weight)	5 (herbicidal effect of not less than 90% by weight)	4 (herbicidal effect of not less than 70% by weight and less than 90% by weight)	4 (herbicidal effect of not less than 70% by weight and less than 90% by weight)	4 (herbicidal effect of not less than 70% by weight and less than 90% by weight)
COC=C(Cn1nc(-c2cc(Cl)ccc2Cl)c(Cl)c1C)C(=O)OC [Compound 22]	1 (herbicidal effect of not less than 10% by weight and less than 30% by weight)	5 (herbicidal effect of not less than 90% by weight)	5 (herbicidal effect of not less than 90% by weight)	5 (herbicidal effect of not less than 90% by weight)	5 (herbicidal effect of not less than 90% by weight)	5 (herbicidal effect of not less than 90% by weight)	5 (herbicidal effect of not less than 90% by weight)	5 (herbicidal effect of not less than 90% by weight)	0 (herbicidal effect of not less than 0% by weight and less than 10% by weight)	0 (herbicidal effect of not less than 0% by weight and less than 10% by weight)	0 (herbicidal effect of not less than 0% by weight and less than 10% by weight)	0 (herbicidal effect of not less than 0% by weight and less than 10% by weight)	5 (herbicidal effect of not less than 90% by weight)	5 (herbicidal effect of not less than 90% by weight)	5 (herbicidal effect of not less than 90% by weight)	4 (herbicidal effect of not less than 70% by weight and less than 90% by weight)	5 (herbicidal effect of not less than 90% by weight)
CCCc1c(Cl)c(-c2cccc(Cl)c2)nn1CC(=COC)C(=O)OC [Compound 40]	0 (herbicidal effect of not less than 0% by weight and less than 10% by weight)	3 (herbicidal effect of not less than 50% by weight and less than 70% by weight)	3 (herbicidal effect of not less than 50% by weight and less than 70% by weight)	3 (herbicidal effect of not less than 50% by weight and less than 70% by weight)	4 (herbicidal effect of not less than 70% by weight and less than 90% by weight)	4 (herbicidal effect of not less than 70% by weight and less than 90% by weight)	4 (herbicidal effect of not less than 70% by weight and less than 90% by weight)	4 (herbicidal effect of not less than 70% by weight and less than 90% by weight)	0 (herbicidal effect of not less than 0% by weight and less than 10% by weight)	0 (herbicidal effect of not less than 0% by weight and less than 10% by weight)	0 (herbicidal effect of not less than 0% by weight and less than 10% by weight)	0 (herbicidal effect of not less than 0% by weight and less than 10% by weight)	4 (herbicidal effect of not less than 70% by weight and less than 90% by weight)	4 (herbicidal effect of not less than 70% by weight and less than 90% by weight)	4 (herbicidal effect of not less than 70% by weight and less than 90% by weight)	4 (herbicidal effect of not less than 70% by weight and less than 90% by weight)	3 (herbicidal effect of not less than 50% by weight and less than 70% by weight)
COC=C(Cn1nc(-c2cccc(C)c2)cc1C)C(=O)OC [Compound 3]	0 (herbicidal effect of not less than 0% by weight and less than 10% by weight)	3 (herbicidal effect of not less than 50% by weight and less than 70% by weight)	4 (herbicidal effect of not less than 70% by weight and less than 90% by weight)	4 (herbicidal effect of not less than 70% by weight and less than 90% by weight)	4 (herbicidal effect of not less than 70% by weight and less than 90% by weight)	4 (herbicidal effect of not less than 70% by weight and less than 90% by weight)	4 (herbicidal effect of not less than 70% by weight and less than 90% by weight)	4 (herbicidal effect of not less than 70% by weight and less than 90% by weight)	0 (herbicidal effect of not less than 0% by weight and less than 10% by weight)	0 (herbicidal effect of not less than 0% by weight and less than 10% by weight)	0 (herbicidal effect of not less than 0% by weight and less than 10% by weight)	0 (herbicidal effect of not less than 0% by weight and less than 10% by weight)	5 (herbicidal effect of not less than 90% by weight)	5 (herbicidal effect of not less than 90% by weight)	4 (herbicidal effect of not less than 70% by weight and less than 90% by weight)	5 (herbicidal effect of not less than 90% by weight)	3 (herbicidal effect of not less than 50% by weight and less than 70% by weight)
